Results reported in patent US7612076B2, “Piperazinyl-pyridine derivatives” (Hoffman-La Roche Inc., priority 2004, dated 2009).

Target: T1, histamine 3 receptor (H3R) (Homo sapiens, UniProt Q9Y5N1)
T1 construct: expressed in transfected cells; host or cells: CHO cells (HR3-CHO cell line), membrane preparation
Experiment: Binding Assay with 3H-(R)α-Methylhistamine (competition binding, membrane of the human HR3-CHO cell line)
Conditions: competition binding vs 3H(R)α-Methylhistamine (1 nM = Kd), 1 hour room temperature, Ki calculated from IC50 by Cheng-Prusoff
Protocol: Binding Assay with ^3H—(R)α-Methylhistamine
Saturation binding experiments were performed using HR3-CHO membranes prepared as described in Takahashi, K, Tokita, S., Kotani, H. (2003) J. Pharmacol. Exp. Therapeutics 307, 213-218.
An appropriate amount of membrane (60 to 80 μg protein/well) was incubated with increasing concentrations of ^3H(R)α-Methylhistamine di-hydrochloride (0.10 to 10 nM). Non specific binding was determined using a 200 fold excess of cold (R)α-Methylhistamine dihydrobromide (500 nM final concentration). The incubation was carried out at room temperature (in deep-well plates shaking for three hours). The final volume in each well was 250 μl. The incubation was followed by rapid filtration on GF/B filters (pre-soaked with 100 μl of 0.5% PEI in Tris 50 mM shaking at 200 rpm for two hours). The filtration was made using a cell-harvester and the filter plates were then washed five times with ice cold washing buffer containing 0.5 M NaCl. After harvesting, the plates were dried at 55° C. for 60 min, then we added scintillation fluid (Microscint 40, 40 microl in each well) and the amount of radioactivity on the filter was determined in Packard top-counter after shaking the plates for two hours at 200 rpm at room temperature.
Binding Buffer: 50 mM Tris-HCl pH 7.4 and 5 mM MgCl2×6H2O pH 7.4. Washing Buffer: 50 mM Tris-HCl pH 7.4 and 5 mM MgCl2×6H2O and 0.5 M NaCl pH 7.4.
Indirect measurement of affinity of H3R inverse agonists: twelve increasing concentrations (ranging from 10 μM to 0.3 nM) of the selected compounds were always tested in competition binding experiments using membrane of the human HR3-CHO cell line. An appropriate amount of protein, e.g. approximately 500 cpm binding of RAMH at Kd, were incubated for 1 hour at room temperature in 250 μl final volume in 96-well plates in presence of ^3H(R)α-Methylhistamine (1 nM final concentration=Kd). […]
All compounds were tested at a single concentration in duplicates. […] Ki's were calculated from IC50 based on Cheng-Prusoff equation (Cheng, Y, Prusoff, W H (1973) Biochem Pharmacol 22, 3099-3108).

T1 sequence (Q9Y5N1 whole entry): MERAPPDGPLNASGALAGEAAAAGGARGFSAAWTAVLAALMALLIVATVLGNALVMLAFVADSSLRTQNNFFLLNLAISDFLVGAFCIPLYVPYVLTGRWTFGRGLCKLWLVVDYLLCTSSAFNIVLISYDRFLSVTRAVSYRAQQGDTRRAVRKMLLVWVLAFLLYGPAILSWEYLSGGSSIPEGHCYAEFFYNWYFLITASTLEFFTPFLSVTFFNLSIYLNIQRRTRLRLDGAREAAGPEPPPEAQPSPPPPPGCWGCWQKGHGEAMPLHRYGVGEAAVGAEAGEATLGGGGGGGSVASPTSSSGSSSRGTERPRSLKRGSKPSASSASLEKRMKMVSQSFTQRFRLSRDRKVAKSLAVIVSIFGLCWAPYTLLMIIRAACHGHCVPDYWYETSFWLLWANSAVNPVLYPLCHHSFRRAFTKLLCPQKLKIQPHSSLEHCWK

Row | Ki | SMILES
1 | 76.7 nM | O=C(Nc1cc(N2CCN(C3CCCC3)CC2)ccn1)c1cccc(F)c1 [Example 48, N-[4-(4-cyclopentyl-piperazin-1-yl)-pyridin-2-yl]-3-fluoro-benzamide]
2 | 8.5 nM | O=C(Nc1ccnc(N2CCN(C3CCCC3)CC2)c1)C1CCCCC1 [Example 11, cyclohexanecarboxylic acid [2-(4-cyclopentyl-piperazin-1-yl)-pyridin-4-yl]-amide]
3 | 48.6 nM | O=C(Nc1ccnc(N2CCN(C3CCCC3)CC2)c1)N1CCC(F)CC1 [Example 66, 4-fluoro-piperidine-1-carboxylic acid [2-(4-cyclopentyl-piperazin-1-yl)-pyridin-4-yl]-amide]
